What was measured:
[1] = Bioavailability of curcumin in plasma; assay type: in vivo; details: rat, 50 mg/kg
wild type Schwann cells = experiment: In vitro H2O2-induced oxidative stress in Schwann cells; assay type: cell-based, rat; details: H2O2 0.1 mM
Experimental: Schwann cells (SCs) were isolated from sciatic nerves of wild type (WT) male rats as well as 8-week-old CMT1A rats. SCs were cultured in SC culture medium (described in Caillaud et al., 2018): DMEM D-valine+2 mM glutamine (Gibco)+10% fetal calf serum (Gibco)+1% N2 supplement (Gibco)+20 μg/mL bovine pituitary extract+5 μM forskolin (Gibco)+100 U/mL penicillin/streptomycin (Gibco)+250 μg/mL fungizone (Gibco). SCs were identified using immunofluorescent labeling for S-100 protein.
To induce oxidative stress, SCs were subjected to H2O2 (0.1 mM) treatment for 8 hours. Total ROS and mitochondrial superoxide ions were assessed using the CellROX-Green reagent (Life Technologies GmbH) and the mitochondrial superoxide indicator MitoSOX Red (Life Technologies GmbH), respectively, according to the manufacturer's recommendations.

[2] = rats; cited from earlier work

## COc1cc(/C=C/C(=O)CC(=O)/C=C/c2ccc(O)c(OC)c2)ccc1O [Curcumin, curcumin]
[1]
  concentration at 0 h: 0 ng/mL
  concentration at 1 h: 24.9 ng/mL
  concentration at 2 h: 4.3 ng/mL
  concentration at 8 h: 0 ng/mL
  concentration at 12 h: 0 ng/mL
Wild type Schwann cells; 0.001 μM and 0.01 μM
  Mitochondrial membrane potential Δψm (Rho123): did not reduce the H2O2-induced decrease in Δψm
Wild type Schwann cells; 1 μM, 8 h pretreatment
  H2O2-induced mitochondrial ROS (MitoSOX): restored values close to those of the control group
  H2O2-induced total ROS (CellROX): reduced H2O2-induced total ROS
Wild type Schwann cells; 0.001, 0.01 and 10 μM, 8 h pretreatment
  H2O2-induced total ROS (CellROX): had no antioxidant effect
[2]
  Oral bioavailability: approximately 1%
